From patent US20260022142A1, “MACROCYCLIC IMMUNOMODULATORS” (Bristol-Myers Squibb Company, priority 2022, published 2026)
Bridge positions count the residues as written; N and C are the ends. Square brackets hold non-standard residues; d marks the D form. Peptide text beside a SMILES is read from it. * marks the point of attachment. ξ: configuration not given here. Phe(3,4,5-F3) = N[C@@H](Cc1cc(F)c(F)c(F)c1)C(=O)O; Phe(4-COOH) = N[C@@H](Cc1ccc(C(=O)O)cc1)C(=O)O; Bip = N[C@@H](Cc1ccc(-c2ccccc2)cc1)C(=O)O; NH(CH2)14COOH = O=C(O)CCCCCCCCCCCCCCN*; Phe(3-Me) = Cc1cccc(C[C@H](N)C(=O)O)c1; Val(3-OH) = CC(C)(O)[C@H](N)C(=O)O; hArg = N=C(N)NCCCC[C@H](N)C(=O)O; 4Pal = N[C@@H](Cc1ccncc1)C(=O)O; Cha = N[C@@H](CC1CCCCC1)C(=O)O; Cit = NC(=O)NCCC[C@H](N)C(=O)O; Thr(3ξ) = CC(O)[C@H](N)C(=O)O; Tle = CC(C)(C)[C@H](N)C(=O)O; Carboxymethyl = O=C(O)C*; Nle = CCCC[C@H](N)C(=O)O; Orn = NCCC[C@H](N)C(=O)O; Aun = NCCCCCCCCCCC(=O)O; Dab = NCC[C@H](N)C(=O)O; Dap = NC[C@H](N)C(=O)O; AEEA = NCCOCCOCC(=O)O

target: T1, PD-1/PD-L1 interaction (PE-labeled human PD-L1-Ig binding to Jurkat cell line over-expressing human PD-1) (Homo sapiens, UniProt Q15116); experiment: Jurkat-PD-1 Cell Binding High-Content Screening Assay (CBA); assay type: cell-based; conditions: Jurkat cell line over-expressing human PD-1; PE-labeled PD-L1-Ig 20 nM final; read-out: Jurkat hPD1-PDL1 IC50
T1 construct: expressed in transfected cells; host or cells: Jurkat
T1 sequence (Q15116 25-288): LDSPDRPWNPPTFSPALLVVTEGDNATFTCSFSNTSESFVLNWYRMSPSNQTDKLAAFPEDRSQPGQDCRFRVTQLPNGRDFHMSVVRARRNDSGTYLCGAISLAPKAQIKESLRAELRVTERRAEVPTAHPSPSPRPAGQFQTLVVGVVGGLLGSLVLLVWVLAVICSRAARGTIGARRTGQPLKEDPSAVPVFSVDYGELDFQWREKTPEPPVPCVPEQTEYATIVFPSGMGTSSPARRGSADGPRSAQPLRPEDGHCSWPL
In short: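 Read-out is high-content imaging of cell-bound phycoerythrin-tagged PD-L1-Ig on fixed, Hoechst-counterstained Jurkat cells that over-express human PD-1. Compound exposure lasts 2 h at 37° C before the labeled ligand (20 nM final) is added for a further hour.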

Compound	IC50 [nM]
Cc1cccc(C[C@@H]2NC(=O)[C@H](CC(=O)O)NC(=O)[C@H](Cc3ccc(OCC(=O)O)cc3)NC(=O)[C@H](CN)NC(=O)CSC[C@@H](C(=O)N[C@H](CC(N)=O)C(=O)NCCCCCCCCCCC(=O)O)NC(=O)[C@H](CO)NC(=O)[C@H](C(C)O)NC(=O)[C@H](CC3CCCCC3)NC(=O)[C@H](CCN)NC(=O)[C@@H](CC(C)C)NC(=O)[C@H](CCCN)NC(=O)[C@H](Cc3ccc(OCC(=O)O)cc3)NC(=O)[C@H](Cc3ccc(-c4ccccc4)cc3)NC(=O)[C@H](Cc3ccc(OCC(=O)O)cc3)NC2=O)c1 (stereo partly drawn) [Compound 3659] ({CH2CO}-[Dap]Y(Carboxymethyl)D[Phe(3-Me)]Y(Carboxymethyl)[Bip]Y(Carboxymethyl)[Orn][dL][Dab][Cha][Thr(3ξ)]SC[dN][Aun]-OH; thioether N-14)	47.6
CC(C)C[C@H]1NC(=O)[C@H](CCCN)NC(=O)[C@H](C(C)C)NC(=O)[C@H](Cc2ccc(-c3ccccc3)cc2)NC(=O)[C@H](C(C)C)NC(=O)[C@H](Cc2c[nH]c3ccccc23)NC(=O)[C@H](CC(=O)O)NC(=O)[C@H](Cc2ccc(OCC(=O)O)cc2)NC(=O)[C@H](CCCCNC(=N)N)NC(=O)CSC[C@@H](C(=O)NCC(=O)NCCOCCOCC(=O)N[C@@H](CCCN)C(=O)NCCCCCCCCCCC(=O)O)NC(=O)[C@H](CCCN)NC(=O)[C@H](C(C)C)NC(=O)[C@H](CC2CCCCC2)NC(=O)[C@H](CC(N)=O)NC1=O [Compound 3203] ({CH2CO}-[hArg]Y(Carboxymethyl)DWV[Bip]V[Orn][dL]N[Cha]V[Orn]CG[AEEA][Orn][Aun]-OH; thioether N-14)	28.4
CC(C)C[C@H]1NC(=O)[C@H](CCCN)NC(=O)[C@H](Cc2ccc(OCC(=O)O)cc2)NC(=O)[C@H](Cc2ccc(-c3ccccc3)cc2)NC(=O)[C@H](Cc2ccc(OCC(=O)O)cc2)NC(=O)[C@H](Cc2cc(F)c(F)c(F)c2)NC(=O)[C@H](CC(=O)O)NC(=O)[C@H](Cc2ccc(OCC(=O)O)cc2)NC(=O)[C@H](Cc2ccncc2)NC(=O)CSC[C@@H](C(=O)N[C@@H](CCN)C(=O)NCCCCCCCCCCC(=O)O)NC(=O)[C@H](CO)NC(=O)[C@H](C(C)(C)O)NC(=O)[C@H](CC2CCCCC2)NC(=O)[C@H](CCN)NC1=O [Compound 2201] ({CH2CO}-[4Pal]Y(Carboxymethyl)D[Phe(3,4,5-F3)]Y(Carboxymethyl)[Bip]Y(Carboxymethyl)[Orn][dL][Dab][Cha][Val(3-OH)]SC[Dab][Aun]-OH; thioether N-14)	78.4
Cc1cccc(C[C@@H]2NC(=O)[C@H](CC(=O)O)NC(=O)[C@H](Cc3ccc(OCC(=O)O)cc3)NC(=O)[C@H](CN)NC(=O)CSC[C@@H](C(=O)N[C@@H](CCN)C(=O)NCCCCCCCCCCC(=O)O)NC(=O)[C@H]([C@@H](C)O)NC(=O)[C@H](C(C)C)NC(=O)[C@H](CC3CCCCC3)NC(=O)[C@H](CCN)NC(=O)[C@@H](CC(C)C)NC(=O)[C@H](CCCN)NC(=O)[C@H](Cc3ccc(OCC(=O)O)cc3)NC(=O)[C@H](Cc3ccc(-c4ccccc4)cc3)NC(=O)[C@H](Cc3ccc(OCC(=O)O)cc3)NC2=O)c1 [Compound 2732] ({CH2CO}-[Dap]Y(Carboxymethyl)D[Phe(3-Me)]Y(Carboxymethyl)[Bip]Y(Carboxymethyl)[Orn][dL][Dab][Cha]VTC[Dab][Aun]-OH; thioether N-14)	21.2
Cc1cccc(C[C@@H]2NC(=O)[C@H](CC(=O)O)NC(=O)[C@H](Cc3ccc(OCC(=O)O)cc3)NC(=O)[C@H](CN)NC(=O)CSC[C@@H](C(=O)N[C@@H](CCN)C(=O)NCCOCCOCC(=O)NCCCCCCCCCCC(=O)O)NC(=O)[C@H](CCCN)NC(=O)[C@H](Cc3ccc(O)cc3)NC(=O)[C@H](CC3CCCCC3)NC(=O)[C@H](CCN)NC(=O)[C@@H](CC(C)C)NC(=O)[C@H](CCCN)NC(=O)[C@H](CCCNC(N)=O)NC(=O)[C@H](Cc3ccc(-c4ccccc4)cc3)NC(=O)[C@H](C(C)C)NC2=O)c1 [Compound 2584] ({CH2CO}-[Dap]Y(Carboxymethyl)D[Phe(3-Me)]V[Bip][Cit][Orn][dL][Dab][Cha]Y[Orn]C[Dab][AEEA][Aun]-OH; thioether N-14)	17.9

The remaining compounds from weak to strong by IC50, led by results:

IC50 [nM]	Compound
106	CCCC[C@@H]1NC(=O)CSC[C@@H](C(=O)N[C@@H](CCN)C(=O)NCCOCCOCC(=O)N[C@@H](CO)C(=O)N[C@H](CCC(=O)NCCCCCCCCCCCCCCC(=O)O)C(=O)O)NC(=O)[C@H](Cc2cnc[nH]2)NC(=O)[C@H](C(C)(C)O)NC(=O)[C@H](CC2CCCCC2)NC(=O)[C@H](CCN)NC(=O)[C@@H](CC(C)C)NC(=O)[C@H](CCCN)NC(=O)[C@H](Cc2ccc(OCC(=O)O)cc2)NC(=O)[C@H](Cc2ccc(-c3ccccc3)cc2)NC(=O)[C@H](Cc2ccc(C(=O)O)cc2)NC(=O)[C@H](Cc2cccc(C)c2)NC(=O)[C@H](CC(=O)O)NC(=O)[C@H](Cc2ccc(OCC(=O)O)cc2)NC1=O [Compound 3894] ({CH2CO}-[Nle]Y(Carboxymethyl)D[Phe(3-Me)][Phe(4-COOH)][Bip]Y(Carboxymethyl)[Orn][dL][Dab][Cha][Val(3-OH)]HC[Dab][AEEA]S[dE](NH(CH2)14COOH)-OH; thioether N-14)
71.7	CC(C)C[C@@H]1NC(=O)[C@H](Cc2c[nH]c3ccccc23)NC(=O)[C@H](CC(=O)O)NC(=O)[C@H](Cc2ccc(OCC(=O)O)cc2)NC(=O)[C@H](CN)NC(=O)CSC[C@@H](C(=O)N[C@@H](CCN)C(=O)NCCCCCCCCCCC(=O)O)NC(=O)[C@H](CCN)NC(=O)[C@H](C(C)O)NC(=O)[C@H](CC2CCCCC2)NC(=O)[C@H](CCN)NC(=O)[C@@H](CC(C)C)NC(=O)[C@H](CCCN)NC(=O)[C@H](Cc2ccc(O)cc2)NC(=O)[C@H](Cc2ccc(-c3ccccc3)cc2)NC1=O (stereo partly drawn) [Compound 3681] ({CH2CO}-[Dap]Y(Carboxymethyl)DWL[Bip]Y[Orn][dL][Dab][Cha][Thr(3ξ)][Dab]C[Dab][Aun]-OH; thioether N-14)
39.5	CC(C)C[C@H]1NC(=O)[C@H](CCCN)NC(=O)[C@H](C(C)C)NC(=O)[C@H](Cc2ccc(-c3ccccc3)cc2)NC(=O)[C@H](C(C)C)NC(=O)[C@H](Cc2c[nH]c3ccccc23)NC(=O)[C@H](CC(=O)O)NC(=O)[C@H](Cc2c[nH]cn2)NC(=O)[C@H](CCCNC(=N)N)NC(=O)CSC[C@@H](C(=O)N[C@@H](CCN)C(=O)NCCCCCCCCCCC(=O)O)NC(=O)[C@H](CCCCN)NC(=O)[C@H](C(C)C)NC(=O)[C@H](CC2CCCCC2)NC(=O)[C@H](CCN)NC1=O [Compound 3290] ({CH2CO}-RHDWV[Bip]V[Orn][dL][Dab][Cha]VKC[Dab][Aun]-OH; thioether N-14)
31.9	CC(C)C[C@H]1NC(=O)[C@H](CCCN)NC(=O)[C@H](Cc2ccc(O)cc2)NC(=O)[C@H](Cc2ccc(-c3ccccc3)cc2)NC(=O)[C@H](C(C)C)NC(=O)[C@H](Cc2ccc(O)cc2)NC(=O)[C@H](CC(=O)O)NC(=O)[C@H](Cc2ccc(OCC(=O)O)cc2)NC(=O)[C@H](CN)NC(=O)CSC[C@@H](C(=O)N[C@@H](CCN)C(=O)NCCOCCOCC(=O)NCCCCCCCCCCC(=O)O)NC(=O)[C@H](CCCN)NC(=O)[C@H](C(C)C)NC(=O)[C@H](CC2CCCCC2)NC(=O)[C@H](CCN)NC1=O [Compound 1302] ({CH2CO}-[Dap]Y(Carboxymethyl)DYV[Bip]Y[Orn][dL][Dab][Cha]V[Orn]C[Dab][AEEA][Aun]-OH; thioether N-14)
28	Cc1cccc(C[C@@H]2NC(=O)[C@H](CC(=O)O)NC(=O)[C@H](Cc3ccc(OCC(=O)O)cc3)NC(=O)[C@H](C)NC(=O)CSC[C@@H](C(=O)N[C@@H](CCN)C(=O)NCCOCCOCC(=O)NCCOCCOCC(=O)NCCOCCOCC(=O)NCCOCCOCC(=O)NCCCCCCCCCCCCCCC(=O)O)NC(=O)[C@H](Cc3cnc[nH]3)NC(=O)[C@H](C(C)(C)O)NC(=O)[C@H](CC3CCCCC3)NC(=O)[C@H](CCN)NC(=O)[C@@H](CC(C)C)NC(=O)[C@H](CCCN)NC(=O)[C@H](Cc3ccc(OCC(=O)O)cc3)NC(=O)[C@H](Cc3ccc(-c4ccccc4)cc3)NC(=O)[C@H](Cc3ccc(OCC(=O)O)cc3)NC2=O)c1 [Compound 3870] ({CH2CO}-AY(Carboxymethyl)D[Phe(3-Me)]Y(Carboxymethyl)[Bip]Y(Carboxymethyl)[Orn][dL][Dab][Cha][Val(3-OH)]HC[Dab][AEEA][AEEA][AEEA][AEEA]-{NH(CH2)14COOH}; thioether N-14)
22.8	CC(C)C[C@H]1NC(=O)[C@H](CCCN)NC(=O)[C@H](C(C)C)NC(=O)[C@H](Cc2ccc(-c3ccccc3)cc2)NC(=O)[C@H](C(C)C)NC(=O)[C@H](Cc2c[nH]c3ccccc23)NC(=O)[C@H](CC(=O)O)NC(=O)[C@H](Cc2ccc(OCC(=O)O)cc2)NC(=O)[C@H](CCCCNC(=N)N)NC(=O)CSC[C@@H](C(=O)N[C@@H](CCN)C(=O)NCCOCCOCC(=O)NCCCCCCCCCCC(=O)O)NC(=O)[C@H](CN)NC(=O)[C@H](C(C)C)NC(=O)[C@H](CC2CCCCC2)NC(=O)[C@H](CC(N)=O)NC1=O [Compound 3214] ({CH2CO}-[hArg]Y(Carboxymethyl)DWV[Bip]V[Orn][dL]N[Cha]V[Dap]C[Dab][AEEA][Aun]-OH; thioether N-14)
7.5	Cc1cccc(C[C@@H]2NC(=O)[C@H](CC(=O)O)NC(=O)[C@H](Cc3ccc(OCC(=O)O)cc3)NC(=O)[C@H](CCCNC(=N)N)NC(=O)CSC[C@@H](C(=O)N[C@@H](CCN)C(=O)NCCCCCCCCCCC(=O)O)NC(=O)[C@H](CCC(N)=O)NC(=O)[C@H](C(C)(C)C)NC(=O)[C@H](CC3CCCCC3)NC(=O)[C@H](CCN)NC(=O)[C@@H](CC(C)C)NC(=O)[C@H](CCCN)NC(=O)[C@H](Cc3ccc(OCC(=O)O)cc3)NC(=O)[C@H](Cc3ccc(-c4ccccc4)cc3)NC(=O)[C@H](Cc3ccc(OCC(=O)O)cc3)NC2=O)c1 [Compound 3532] ({CH2CO}-RY(Carboxymethyl)D[Phe(3-Me)]Y(Carboxymethyl)[Bip]Y(Carboxymethyl)[Orn][dL][Dab][Cha][Tle]QC[Dab][Aun]-OH; thioether N-14)
